The supplement of paper PMC11451515

System: SEM cells
Assay: cell viability relative to DMSO control; higher = less cytotoxic
Settings: 48 h
Outline: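 Viability is expressed as a percentage of DMSO wells within each plate, and cell-free wells serve as background. Seeding densities in the 1536-well plates (5 μl) were 500 cells/well for NOMO1 or SEM leukemia cells and 1000 cells/well for P12-Ichikawa. Each line was adapted for at least four passages in each medium. Library compounds in DMSO were pin-dosed at 47 μM to 0.79 nM (11 points, threefold), and CellTiter-Glo One luminescence was read after 48 h at 37°C.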

[1] = HPLM + 10% dialyzed FBS, 0.000781 µM
[2] = HPLM + 10% dialyzed FBS, 0.00234 µM
[3] = HPLM + 10% dialyzed FBS, 0.00702 µM
[4] = HPLM + 10% dialyzed FBS, 0.0211 µM
[5] = HPLM + 10% dialyzed FBS, 0.0632 µM
[6] = HPLM + 10% dialyzed FBS, 0.19 µM
[7] = HPLM + 10% dialyzed FBS, 0.569 µM
[8] = HPLM + 10% dialyzed FBS, 1.71 µM
[9] = HPLM + 10% dialyzed FBS, 5.12 µM
[10] = HPLM + 10% dialyzed FBS, 15.4 µM
[11] = HPLM + 10% dialyzed FBS, 46.1 µM
[12] = RPMI 5 mM glucose + 10% FBS, 0.000781 µM
[13] = RPMI 5 mM glucose + 10% FBS, 0.00234 µM
[14] = RPMI 5 mM glucose + 10% FBS, 0.00702 µM
[15] = RPMI 5 mM glucose + 10% FBS, 0.0211 µM
[16] = RPMI 5 mM glucose + 10% FBS, 0.0632 µM
[17] = RPMI 5 mM glucose + 10% FBS, 0.19 µM
[18] = RPMI 5 mM glucose + 10% FBS, 0.569 µM
[19] = RPMI 5 mM glucose + 10% FBS, 1.71 µM
[20] = RPMI 5 mM glucose + 10% FBS, 5.12 µM
[21] = RPMI 5 mM glucose + 10% FBS, 15.4 µM
[22] = RPMI 5 mM glucose + 10% FBS, 46.1 µM
[23] = RPMI 5 mM glucose + 10% dialyzed FBS, 0.000781 µM
[24] = RPMI 5 mM glucose + 10% dialyzed FBS, 0.00234 µM
[25] = RPMI 5 mM glucose + 10% dialyzed FBS, 0.00702 µM
[26] = RPMI 5 mM glucose + 10% dialyzed FBS, 0.0211 µM
[27] = RPMI 5 mM glucose + 10% dialyzed FBS, 0.0632 µM
[28] = RPMI 5 mM glucose + 10% dialyzed FBS, 0.19 µM
[29] = RPMI 5 mM glucose + 10% dialyzed FBS, 0.569 µM
[30] = RPMI 5 mM glucose + 10% dialyzed FBS, 1.71 µM
[31] = RPMI 5 mM glucose + 10% dialyzed FBS, 5.12 µM
[32] = RPMI 5 mM glucose + 10% dialyzed FBS, 15.4 µM
[33] = RPMI 5 mM glucose + 10% dialyzed FBS, 46.1 µM

Cc1ccc(C(=O)Nc2cccc(C(F)(F)F)c2)cc1-c1ccc2nc(NCCN3CCOCC3)ncc2c1
cell viability [1]: 115%
cell viability [2]: 118%
cell viability [3]: 118%
cell viability [4]: 122%
cell viability [5]: 107%
cell viability [6]: 109%
cell viability [7]: 114%
cell viability [8]: 101%
cell viability [9]: 51.3%
cell viability [10]: 31.6%
cell viability [11]: 8.49%
cell viability [12]: 105%
cell viability [13]: 113%
cell viability [14]: 112%
cell viability [15]: 125%
cell viability [16]: 116%
cell viability [17]: 114%
cell viability [18]: 110%
cell viability [19]: 103%
cell viability [20]: 41.6%
cell viability [21]: 15.7%
cell viability [22]: 7.56%
cell viability [23]: 109%
cell viability [24]: 101%
cell viability [25]: 94.5%
cell viability [26]: 97%
cell viability [27]: 124%
cell viability [28]: 92.8%
cell viability [29]: 117%
cell viability [30]: 97.3%
cell viability [31]: 35.8%
cell viability [32]: 15.9%
cell viability [33]: 6.55%

CC(=O)OC[C@H]1O[C@@H]([S-])[C@H](OC(C)=O)[C@@H](OC(C)=O)[C@@H]1OC(C)=O.CCP(CC)CC.[Au+]
cell viability [1]: 73.4%
cell viability [2]: 72.8%
cell viability [3]: 68.7%
cell viability [4]: 82.1%
cell viability [5]: 73.6%
cell viability [6]: 97.6%
cell viability [7]: 84%
cell viability [8]: 83.1%
cell viability [9]: 15.9%
cell viability [10]: 6.62%
cell viability [11]: 6.21%
cell viability [12]: 91.1%
cell viability [13]: 75%
cell viability [14]: 87.3%
cell viability [15]: 84.8%
cell viability [16]: 77.8%
cell viability [17]: 105%
cell viability [18]: 101%
cell viability [19]: 88.5%
cell viability [20]: 6.02%
cell viability [21]: 6.28%
cell viability [22]: 5.83%
cell viability [23]: 78.4%
cell viability [24]: 85.1%
cell viability [25]: 78.6%
cell viability [26]: 80.1%
cell viability [27]: 77.6%
cell viability [28]: 87.2%
cell viability [29]: 84.5%
cell viability [30]: 69.4%
cell viability [31]: 7.37%
cell viability [32]: 6.42%
cell viability [33]: 5.84%

N#C/C(=C\c1ccc(O)c(O)c1)C(=O)NCc1ccccc1
cell viability [1]: 103%
cell viability [2]: 103%
cell viability [3]: 109%
cell viability [4]: 113%
cell viability [5]: 113%
cell viability [6]: 102%
cell viability [7]: 93.2%
cell viability [8]: 104%
cell viability [9]: 105%
cell viability [10]: 72.8%
cell viability [11]: 37.2%
cell viability [12]: 103%
cell viability [13]: 100%
cell viability [14]: 101%
cell viability [15]: 105%
cell viability [16]: 114%
cell viability [17]: 111%
cell viability [18]: 107%
cell viability [19]: 112%
cell viability [20]: 96.4%
cell viability [21]: 80.2%
cell viability [22]: 9.69%
cell viability [23]: 111%
cell viability [24]: 107%
cell viability [25]: 96.4%
cell viability [26]: 106%
cell viability [27]: 114%
cell viability [28]: 102%
cell viability [29]: 104%
cell viability [30]: 101%
cell viability [31]: 101%
cell viability [32]: 69%
cell viability [33]: 26.4%

CC\12CCC(=O)\C=C1CCC3C2CCC4(C)C3CCC4(O)C#C (stereo not given)
cell viability [1]: 105%
cell viability [2]: 104%
cell viability [3]: 105%
cell viability [4]: 99.9%
cell viability [5]: 113%
cell viability [6]: 102%
cell viability [7]: 103%
cell viability [8]: 117%
cell viability [9]: 91.1%
cell viability [10]: 94.9%
cell viability [11]: 90.5%
cell viability [12]: 107%
cell viability [13]: 92.2%
cell viability [14]: 99.2%
cell viability [15]: 102%
cell viability [16]: 94.5%
cell viability [17]: 106%
cell viability [18]: 95.7%
cell viability [19]: 95.8%
cell viability [20]: 70.7%
cell viability [21]: 100%
cell viability [22]: 99%
cell viability [23]: 112%
cell viability [24]: 105%
cell viability [25]: 98.3%
cell viability [26]: 113%
cell viability [27]: 117%
cell viability [28]: 102%
cell viability [29]: 113%
cell viability [30]: 98.5%
cell viability [31]: 97.3%
cell viability [32]: 106%
cell viability [33]: 99.9%

CC(C)N(C[C@H]1O[C@@H](n2cnc3c(N)ncnc32)[C@H](O)[C@@H]1O)[C@H]1C[C@@H](CCc2nc3cc(C(C)(C)C)ccc3[nH]2)C1
cell viability [1]: 85.1%
cell viability [2]: 87.1%
cell viability [3]: 101%
cell viability [4]: 90.5%
cell viability [5]: 82%
cell viability [6]: 95.7%
cell viability [7]: 96.6%
cell viability [8]: 100%
cell viability [9]: 82%
cell viability [10]: 85.4%
cell viability [11]: 4.22%
cell viability [12]: 104%
cell viability [13]: 124%
cell viability [14]: 131%
cell viability [15]: 112%
cell viability [16]: 115%
cell viability [17]: 128%
cell viability [18]: 102%
cell viability [19]: 36.3%
cell viability [20]: 19%
cell viability [21]: 21%
cell viability [22]: 5.01%
cell viability [23]: 86.3%
cell viability [24]: 100%
cell viability [25]: 105%
cell viability [26]: 88.2%
cell viability [27]: 92.8%
cell viability [28]: 103%
cell viability [29]: 113%
cell viability [30]: 100%
cell viability [31]: 47.6%
cell viability [32]: 49%
cell viability [33]: 4.49%

COc1ccc(C(CN(C)C)C2(O)CCCCC2)cc1 (stereo not given)
cell viability [1]: 83.7%
cell viability [2]: 134%
cell viability [3]: 106%
cell viability [4]: 134%
cell viability [5]: 124%
cell viability [6]: 118%
cell viability [7]: 106%
cell viability [8]: 107%
cell viability [9]: 117%
cell viability [10]: 116%
cell viability [11]: 104%
cell viability [12]: 78.5%
cell viability [13]: 132%
cell viability [14]: 122%
cell viability [15]: 110%
cell viability [16]: 124%
cell viability [17]: 125%
cell viability [18]: 103%
cell viability [19]: 112%
cell viability [20]: 119%
cell viability [21]: 120%
cell viability [22]: 95.9%
cell viability [23]: 64.9%
cell viability [24]: 120%
cell viability [25]: 122%
cell viability [26]: 134%
cell viability [27]: 163%
cell viability [28]: 138%
cell viability [29]: 115%
cell viability [30]: 122%
cell viability [31]: 148%
cell viability [32]: 118%
cell viability [33]: 135%

C[C@@H](NCCCc1cccc(C(F)(F)F)c1)c1cccc2ccccc12
cell viability [1]: 121%
cell viability [2]: 119%
cell viability [3]: 116%
cell viability [4]: 117%
cell viability [5]: 118%
cell viability [6]: 111%
cell viability [7]: 120%
cell viability [8]: 122%
cell viability [9]: 113%
cell viability [10]: 106%
cell viability [11]: 105%
cell viability [12]: 112%
cell viability [13]: 124%
cell viability [14]: 119%
cell viability [15]: 131%
cell viability [16]: 107%
cell viability [17]: 113%
cell viability [18]: 116%
cell viability [19]: 114%
cell viability [20]: 96.5%
cell viability [21]: 94.3%
cell viability [22]: 111%
